Literature values as cited in paper PMC5907794 (Journal of Medicinal Chemistry, 2018).

What was measured:
[1] = ref 60−63
[2] = ref 60−62

Solubility in aqueous media (in words) [2]: low solubility in aqueous media
Compound: CC(=O)O[C@H]1C(=O)[C@@]2(C)[C@H]([C@H](OC(=O)c3ccccc3)[C@]3(O)C[C@H](OC(=O)[C@H](O)[C@@H](NC(=O)c4ccccc4)c4ccccc4)C(C)=C1C3(C)C)[C@]1(OC(C)=O)CO[C@@H]1C[C@@H]2O [Paclitaxel, paclitaxel]
Dose-limiting side effects [1]: severe dose-limiting side effects
